Data: PubChem BioAssay AID1963866 (Molecular Pharmacology Branch, DTP, NCI, 2024)

Tested on: PDC KRAS tumor spheroids with HUVEC/MSC, viability
Test: Anticancer human tumor 349418-098-R-PDC patient-derived lung adenocarcinoma cell line growth inhibition [KRAS2]
Settings: for IC50: curve of first compound; for viability, T/C: stronger effect = lower value; active = viability on the fitted dose curve at most 10% of control; inactive = the rest
Summary of the method: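 Combination screen of spheroid viability in tumor-cell co-cultures with endothelial (HUVEC) and mesenchymal stem cell stroma. Each agent was tested in half-log dilutions, topping at clinical Cmax or at 10 microM without a known Cmax.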

[1] = second compound 0.1 µM, first compound 0.000316 µM
[2] = second compound 0.1 µM, first compound 0.001 µM
[3] = second compound 0.1 µM, first compound 0.00316 µM
[4] = second compound 0.1 µM, first compound 0.01 µM
[5] = second compound 0.1 µM, first compound 0.0316 µM
[6] = second compound 0.316 µM, first compound 0.000316 µM
[7] = second compound 0.316 µM, first compound 0.001 µM
[8] = second compound 0.316 µM, first compound 0.00316 µM
[9] = second compound 0.316 µM, first compound 0.01 µM
[10] = second compound 0.316 µM, first compound 0.0316 µM
[11] = second compound 1 µM, first compound 0.000316 µM
[12] = second compound 1 µM, first compound 0.001 µM
[13] = second compound 1 µM, first compound 0.00316 µM
[14] = second compound 1 µM, first compound 0.01 µM
[15] = second compound 1 µM, first compound 0.0316 µM
[16] = second compound 3.16 µM, first compound 0.000316 µM
[17] = second compound 3.16 µM, first compound 0.001 µM
[18] = second compound 3.16 µM, first compound 0.00316 µM
[19] = second compound 3.16 µM, first compound 0.01 µM
[20] = second compound 3.16 µM, first compound 0.0316 µM
[21] = second compound 10 µM, first compound 0.000316 µM
[22] = second compound 10 µM, first compound 0.001 µM
[23] = second compound 10 µM, first compound 0.00316 µM
[24] = second compound 10 µM, first compound 0.01 µM
[25] = second compound 10 µM, first compound 0.0316 µM
[26] = second compound 0.1 µM, first compound 0.1 µM
[27] = second compound 0.316 µM, first compound 0.1 µM
[28] = second compound 1 µM, first compound 0.1 µM
[29] = second compound 3.16 µM, first compound 0.1 µM
[30] = second compound 10 µM, first compound 0.1 µM
[31] = second compound 0.1 µM, first compound 0.316 µM
[32] = second compound 0.1 µM, first compound 1 µM
[33] = second compound 0.1 µM, first compound 3.16 µM
[34] = second compound 0.1 µM, first compound 10 µM
[35] = second compound 0.316 µM, first compound 0.316 µM
[36] = second compound 0.316 µM, first compound 1 µM
[37] = second compound 0.316 µM, first compound 3.16 µM
[38] = second compound 0.316 µM, first compound 10 µM
[39] = second compound 1 µM, first compound 0.316 µM
[40] = second compound 1 µM, first compound 1 µM
[41] = second compound 1 µM, first compound 3.16 µM
[42] = second compound 1 µM, first compound 10 µM
[43] = second compound 3.16 µM, first compound 0.316 µM
[44] = second compound 3.16 µM, first compound 1 µM
[45] = second compound 3.16 µM, first compound 3.16 µM
[46] = second compound 3.16 µM, first compound 10 µM
[47] = second compound 10 µM, first compound 0.316 µM
[48] = second compound 10 µM, first compound 1 µM
[49] = second compound 10 µM, first compound 3.16 µM
[50] = second compound 10 µM, first compound 10 µM
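Note: spheroids exposed to compounds for seven days before readout.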

CC(=O)Nc1cccc(-n2c(=O)n(C3CC3)c(=O)c3c(Nc4ccc(I)cc4F)n(C)c(=O)c(C)c32)c1 + COc1cc2nc(C)nc(NC(C)c3cc(N)cc(C(F)(F)F)c3)c2cc1OC1CCOC1
inactive: viability, T/C (second compound 0.1 µM, first compound 0.0001 µM) 26.5% | viability, T/C [1] 12.7% | viability, T/C (second compound 0.316 µM, first compound 0.0001 µM) 19.8% | viability, T/C [6] 10.8% | viability, T/C (second compound 1 µM, first compound 0.0001 µM) 18% | viability, T/C (second compound 3.16 µM, first compound 0.0001 µM) 14.4% | viability, T/C [16] 11%
< 0.1 nM: IC50 (second compound 0.1 µM) | IC50 (second compound 0.316 µM) | IC50 (second compound 1 µM) | IC50 (second compound 3.16 µM) | IC50 (second compound 10 µM)
active: viability, T/C [2] 8.13% | viability, T/C [3] 7.1% | viability, T/C [4] 6.58% | viability, T/C [5] 5.51% | viability, T/C [7] 8.06% | viability, T/C [8] 7.58% | viability, T/C [9] 6.23% | viability, T/C [10] 4.76% | viability, T/C [11] 8.51% | viability, T/C [12] 7.77% | viability, T/C [13] 6.73% | viability, T/C [14] 5.93% | viability, T/C [15] 4.86% | viability, T/C [17] 8.06% | viability, T/C [18] 5.6% | viability, T/C [19] 5.05% | viability, T/C [20] 4.65% | viability, T/C (second compound 10 µM, first compound 0.0001 µM) 5.99% | viability, T/C [21] 4.73% | viability, T/C [22] 4.46% | viability, T/C [23] 3.12% | viability, T/C [24] 4.29% | viability, T/C [25] 3.2%

CN(C)C/C=C/C(=O)Nc1cc2c(Nc3ccc(F)c(Cl)c3)ncnc2cc1O[C@H]1CCOC1 + COc1cc2nc(C)nc(NC(C)c3cc(N)cc(C(F)(F)F)c3)c2cc1OC1CCOC1
> 100 nM: IC50 (second compound 0.1 µM) | IC50 (second compound 0.316 µM) | IC50 (second compound 1 µM) | IC50 (second compound 3.16 µM) | IC50 (second compound 10 µM)
inactive: viability, T/C [1] 97.6% | viability, T/C [2] 104% | viability, T/C [3] 88.8% | viability, T/C [4] 95.3% | viability, T/C [5] 93.8% | viability, T/C [26] 92.8% | viability, T/C [6] 87.2% | viability, T/C [7] 102% | viability, T/C [8] 92.2% | viability, T/C [9] 102% | viability, T/C [10] 87.5% | viability, T/C [27] 88.2% | viability, T/C [11] 91.5% | viability, T/C [12] 97.4% | viability, T/C [13] 101% | viability, T/C [14] 92.8% | viability, T/C [15] 90.8% | viability, T/C [28] 91.9% | viability, T/C [16] 74.7% | viability, T/C [17] 78.2% | viability, T/C [18] 70.3% | viability, T/C [19] 77.7% | viability, T/C [20] 67.6% | viability, T/C [29] 75.1% | viability, T/C [21] 74% | viability, T/C [22] 69.7% | viability, T/C [23] 73.2% | viability, T/C [24] 78.8% | viability, T/C [25] 73.4% | viability, T/C [30] 62.8%

COC(=O)c1ccc2c(C(=Nc3ccc(N(C)C(=O)CN4CCN(C)CC4)cc3)c3ccccc3)c(O)[nH]c2c1 + COc1cc2nc(C)nc(NC(C)c3cc(N)cc(C(F)(F)F)c3)c2cc1OC1CCOC1
active: viability, T/C [38] 13.5% | viability, T/C [45] 5.92% | viability, T/C [46] 0.55% | viability, T/C [49] 1.15% | viability, T/C [50] 0.2%
1370 nM: IC50 (second compound 1 µM)
1050 nM: IC50 (second compound 0.316 µM)
587 nM: IC50 (second compound 3.16 µM)
< 31.6 nM: IC50 (second compound 10 µM)
inactive: viability, T/C [5] 113% | viability, T/C [26] 97.2% | viability, T/C [31] 76.1% | viability, T/C [32] 78.8% | viability, T/C [33] 8.68% | viability, T/C [34] 15.6% | viability, T/C [10] 91.2% | viability, T/C [27] 121% | viability, T/C [35] 83% | viability, T/C [36] 56.8% | viability, T/C [37] 7.24% | viability, T/C [15] 88.9% | viability, T/C [28] 103% | viability, T/C [39] 90.5% | viability, T/C [40] 64.7% | viability, T/C [41] 9.57% | viability, T/C [42] 11.1% | viability, T/C [20] 66.5% | viability, T/C [29] 92.8% | viability, T/C [43] 78.2% | viability, T/C [44] 25.8% | viability, T/C [25] 41.8% | viability, T/C [30] 28% | viability, T/C [47] 36.7% | viability, T/C [48] 11.3%
1640 nM: IC50 (second compound 0.1 µM)

COc1cc(Nc2ncc3c(n2)-c2ccc(Cl)cc2C(c2c(F)cccc2OC)=NC3)ccc1C(=O)O + COc1cc2nc(C)nc(NC(C)c3cc(N)cc(C(F)(F)F)c3)c2cc1OC1CCOC1
47.4 nM: IC50 (second compound 0.1 µM)
< 31.6 nM: IC50 (second compound 1 µM) | IC50 (second compound 3.16 µM) | IC50 (second compound 10 µM)
inactive: viability, T/C [5] 60% | viability, T/C [26] 30.7% | viability, T/C [31] 31.8% | viability, T/C [32] 34.2% | viability, T/C [33] 23.3% | viability, T/C [34] 23.8% | viability, T/C [10] 52.8% | viability, T/C [27] 27.4% | viability, T/C [35] 30.8% | viability, T/C [36] 26.5% | viability, T/C [37] 25.4% | viability, T/C [38] 23.4% | viability, T/C [15] 48.5% | viability, T/C [28] 31.2% | viability, T/C [39] 36.2% | viability, T/C [40] 33% | viability, T/C [41] 28.3% | viability, T/C [42] 20.5% | viability, T/C [20] 45.8% | viability, T/C [29] 29.4% | viability, T/C [43] 28% | viability, T/C [44] 25.5% | viability, T/C [45] 18.4% | viability, T/C [46] 19.1% | viability, T/C [25] 16.7% | viability, T/C [30] 22% | viability, T/C [47] 12.4% | viability, T/C [48] 9.24% | viability, T/C [49] 16.1%
active: viability, T/C [50] 6%
36 nM: IC50 (second compound 0.316 µM)

COc1cc2nccc(Oc3ccc(NC(=O)C4(C(=O)Nc5ccc(F)cc5)CC4)cc3)c2cc1OC + COc1cc2nc(C)nc(NC(C)c3cc(N)cc(C(F)(F)F)c3)c2cc1OC1CCOC1
< 31.6 nM: IC50 (second compound 10 µM)
inactive: viability, T/C [5] 111% | viability, T/C [26] 107% | viability, T/C [31] 81.8% | viability, T/C [32] 9.71% | viability, T/C [33] 21.9% | viability, T/C [34] 113% | viability, T/C [10] 102% | viability, T/C [27] 97.3% | viability, T/C [35] 71.2% | viability, T/C [36] 8.51% | viability, T/C [37] 15.3% | viability, T/C [38] 103% | viability, T/C [15] 109% | viability, T/C [28] 97.7% | viability, T/C [39] 65.4% | viability, T/C [40] 8.96% | viability, T/C [41] 12.7% | viability, T/C [42] 102% | viability, T/C [20] 98.4% | viability, T/C [29] 85.6% | viability, T/C [43] 72.6% | viability, T/C [44] 6.65% | viability, T/C [45] 2.1% | viability, T/C [46] 90.6% | viability, T/C [25] 44.6% | viability, T/C [30] 11.7% | viability, T/C [47] 7.86% | viability, T/C [48] 0.78% | viability, T/C [49] 0.14% | viability, T/C [50] 61.9%
732 nM: IC50 (second compound 0.316 µM)
611 nM: IC50 (second compound 3.16 µM)
936 nM: IC50 (second compound 0.1 µM)
656 nM: IC50 (second compound 1 µM)

O=C(c1cc(Cc2n[nH]c(=O)c3ccccc23)ccc1F)N1CCN(C(=O)C2CC2)CC1 + COc1cc2nc(C)nc(NC(C)c3cc(N)cc(C(F)(F)F)c3)c2cc1OC1CCOC1
inactive: viability, T/C [5] 89.4% | viability, T/C [26] 96% | viability, T/C [31] 85.9% | viability, T/C [32] 85.6% | viability, T/C [33] 64.8% | viability, T/C [34] 32.3% | viability, T/C [10] 92.7% | viability, T/C [27] 94.8% | viability, T/C [35] 77.5% | viability, T/C [36] 87.6% | viability, T/C [37] 57.8% | viability, T/C [38] 27.5% | viability, T/C [15] 110% | viability, T/C [28] 105% | viability, T/C [39] 75.8% | viability, T/C [40] 93.8% | viability, T/C [41] 61.5% | viability, T/C [42] 30.2% | viability, T/C [20] 93.2% | viability, T/C [29] 76.6% | viability, T/C [43] 80.5% | viability, T/C [44] 60.1% | viability, T/C [45] 41.1% | viability, T/C [46] 23.8% | viability, T/C [25] 89.9% | viability, T/C [30] 36.1% | viability, T/C [47] 35.3% | viability, T/C [48] 22.2% | viability, T/C [49] 10.2% | viability, T/C [50] 9.73%
4960 nM: IC50 (second compound 1 µM)
1940 nM: IC50 (second compound 3.16 µM)
4260 nM: IC50 (second compound 0.316 µM)
87.3 nM: IC50 (second compound 10 µM)
5370 nM: IC50 (second compound 0.1 µM)
